According to patent publication US10383838B2, “Concentrated liquid diet” (The Nisshin OilliO Group, Ltd., priority 2008, dated 2019):

System: gastric mucosa of rat
Test: Test for investigating irritation of gastric mucosa in rat
Format: in vivo, Wistar rats
Conditions: oral after fasting 18 hrs, dose 2 g/kg BW, stomach observed 1 hour after administration
Experimental: Five male 10-week old Wistar rats having a body weight of about 200 g (Japan SLC, Inc.) as one test group were subjected to tests by administration. […] The amount of the triglyceride administered was 2 g per kg of body weight. After placing at rest for 1 hour following the administration, an incision was made in the abdomen under anesthesia, and the stomach was extirpated. Then, the extirpated stomach was incised along the greater curvature, and the gastric mucosa was washed with physiological saline and visually observed, with use of a loupe as needed. It should be noted that evaluation in connection with the irritation of gastric mucosa was made in accordance with a method described in a document (Yakugaku Zasshi 89 (8): 1114-1118, 1978). The criteria of evaluation are shown below.
(−): Nine or less areas of patchy redness found.
(+): Ten or more areas of patchy redness found, and sum total of each length of erosion being no greater than 2 mm.
(++): Twenty or more areas of patchy redness found, and sum total of each length of erosion being no greater than 10 mm.
(+++): Sum total of each length of ulcer, or erosion being no less than 10 mm.
It is to be noted that when evaluation was made as (−), the number of areas of patchy redness was counted.

Question: CCO [Positive Control Group, ethanol] was tested. Which “Irritation of gastric mucosa” value did it give?
Answer: (+++) (Sum total of each length of ulcer, or erosion being no less than 10 mm.)
